Reference: EP1343508B1, “USE OF AN OESTROGEN IN THE MANUFACTURE OF A COMPOSITION CONTAINING OESTROGEN FOR THE TREATMENT OF ATROPHIC VAGINITIS” (Novo Nordisk Femcare AG, priority 2000, dated 2002)
Several values for one entry are separate records, joined by “and”; a condition that tells them apart may be missing. Identical values can stand only once. Marks after values point to notes of the source that are not given here.

Experiments:
[1] = 24-hour serum estradiol profile after vaginal tablet insertion (radioimmunoassay), Example 2; assay type: in vivo, postmenopausal women; conditions: for patients with areas under the curve below 600 pg hr/mL at both time points / percentage of patients with areas under the curve below 600 pg hr/mL at both time points: weeks 0 and 12; for Maximal concentration / Time to maximal concentration: mean ± SD
Source text: (§1) After the screening visit, patients received no study treatment during the 4-week run-in period prior to the baseline visit. […] The vaginal tablets were identical in appearance. Patients inserted 1 tablet intravaginally, once daily for the initial 2 weeks of the study and then twice per week (Sunday and Thursday) for the remaining 10 weeks. Patients were instructed to use their medication at a consistent time each day, preferably in the morning.
Upon presentation to the clinic for each visit, a vaginal cytology specimen was obtained. Patients then inserted the tablets. […] The blood samples obtained at 30 minutes before insertion, and at 6, 12, and 24 hours after insertion were also used to determine the FSH concentration via immunoradiometric assay.
Data for area under the curve and maximal concentration were converted to a logarithmic scale, and changes from first dose (at the baseline visit) in the logarithmic values were estimated using 95% confidence intervals derived from paired t-tests. […] Differences within treatment groups in FSH concentration were determined using the Wilcoxon signed rank test based on changes from baseline in mean concentrations at weeks 2 and 12. Mean concentrations were defined as the average concentrations obtained at 30 minutes before tablet insertion and 6, 12, and 24 hours after insertion.

[2] = test system: superficial vaginal cells; assay: Vaginal cytology, percentage of superficial cells, Example 3; assay type: in vivo, postmenopausal women
Method: Efficacy was measured with composite scores of vaginal symptoms (dryness, soreness, and irritation) and vaginal health (secretions, epithelial integrity, surface thickness, and pH). Vaginal and urethral cytology analyses were also performed, and the vaginal maturation value was determined. Safety assessments included endometrial biopsies.
All vaginal tablets were identical in appearance. Patients inserted 1 tablet daily for 14 days. Thereafter, patients inserted 1 tablet twice per week (Sunday and Thursday) for the remainder of the trial. Patients were to insert the tablets at the same time each day (preferably at bedtime). Patients were evaluated for efficacy and safety at Week - 4 (screening), Week 0 (baseline), and Weeks 2, 7, and 12.
Vaginal and urethral cell samples were harvested and analyzed by independent cytologists to determine the percentages of parabasal, intermediate, and superficial cells. Maturation values were calculated according to the following equation: maturation value = 1.0 × [superficial cells, %] + 0.5 × [intermediate cells, %] [formula] Endometrial biopsies were performed at the end of the study in patients with intact uteri. The number of patients with abnormal biopsies was compared between treatment groups.

[3] = test system: postmenopausal women with atrophic vaginitis; assay: Vaginal symptom composite score (dryness, soreness, irritation), Example 3; assay type: in vivo; conditions: scale 0-3
Method: Efficacy was measured with composite scores of vaginal symptoms (dryness, soreness, and irritation) and vaginal health (secretions, epithelial integrity, surface thickness, and pH). Vaginal and urethral cytology analyses were also performed, and the vaginal maturation value was determined. Safety assessments included endometrial biopsies. […] All vaginal tablets were identical in appearance. Patients inserted 1 tablet daily for 14 days. Thereafter, patients inserted 1 tablet twice per week (Sunday and Thursday) for the remainder of the trial. Patients were to insert the tablets at the same time each day (preferably at bedtime). Patients were evaluated for efficacy and safety at Week - 4 (screening), Week 0 (baseline), and Weeks 2, 7, and 12. Efficacy assessments included patient ratings of atrophic vaginitis symptoms, investigator ratings of vaginal health, and vaginal and urethral cytology. Patients used intensity ratings of none, mild, moderate, or severe to evaluate atrophic vaginitis symptoms (dryness, soreness, irritation, dyspareunia, and vaginal discharge). Intensity ratings were assigned ascending scores from 0 (none) to 3 (severe) for analysis. A composite score for atrophic vaginitis symptoms was defined as the average of the individual symptom scores for dryness, soreness, and irritation. […] The composite score and the change from baseline for the composite score were examined at each time point. Differences within and between treatment groups were analyzed using an analysis of variance (ANOVA). […] Efficacy was measured with composite scores of vaginal symptoms (dryness, soreness, and irritation) and vaginal health (secretions, epithelial integrity, surface thickness, and pH). Vaginal and urethral cytology analyses were also performed, and the vaginal maturation value was determined. Safety assessments included endometrial biopsies. […] Patients were evaluated for efficacy and safety at Week - 4 (screening), Week 0 (baseline), and Weeks 2, 7, and 12. […] Differences within and between treatment groups were analyzed using an analysis of variance (ANOVA).

[4] = test system: vaginal mucosal cells; assay: Maturation value of vaginal mucosal cells, Example 2; assay type: in vivo, postmenopausal women
Method: Maturation values of vaginal mucosal cells were assessed as an indicator of changes in the condition of the vaginal mucosa in response to treatment.
as §1
Upon presentation to the clinic for each visit, a vaginal cytology specimen was obtained. Patients then inserted the tablets. […] The blood samples obtained at 30 minutes before insertion, and at 6, 12, and 24 hours after insertion were also used to determine the FSH concentration via immunoradiometric assay. […]

[5] = 10 µg E2 vaginal tablet, Week 0
[6] = 10 µg E2 vaginal tablet, Week 12
[7] = 25 µg E2 vaginal tablet, Week 0
[8] = 25 µg E2 vaginal tablet, Week 12

C[C@]12CC[C@@H]3c4ccc(O)cc4CC[C@H]3[C@@H]1CC[C@@H]2O [E2, 17β-estradiol]
patients with areas under the curve below 600 pg hr/mL at both time points ([1]; 10 µg E2): 22 patients | percentage of patients with areas under the curve below 600 pg hr/mL at both time points ([1]; 10 µg E2): 96% | Serum concentration over 24 hours [1, 5]: 0.015 ng/mL | Maximal concentration [1, 5]: 35 ± 17 pg/mL | Area under the curve ([1]; 10 µg E2 vaginal tablet, Week 0, serum E2, mean ± SD): 0.349 ± 0.107 ng·h/mL | Serum concentration over 24 hours [1, 6]: 0.011 ng/mL | Maximal concentration [1, 6]: 22 ± 17 pg/mL | Time to maximal concentration [1, 6]: 10 ± 8 h | Area under the curve ([1]; 10 µg E2 vaginal tablet, Week 12, serum E2, mean ± SD): 0.264 ± 0.12 ng·h/mL | patients with areas under the curve below 600 pg hr/mL at both time points ([1]; 25 µg E2): 14 patients | percentage of patients with areas under the curve below 600 pg hr/mL at both time points ([1]; 25 µg E2): 74% | Serum concentration over 24 hours [1, 7]: 0.022 ng/mL | Time to maximal concentration [1, 7]: 15 ± 9 h | Area under the curve ([1]; 25 µg E2 vaginal tablet, Week 0, repeated Table 2): 538000 ± 265000 ng·h/mL | Area under the curve ([1]; 25 µg E2 vaginal tablet, Week 0, serum E2, mean ± SD): 0.538 ± 0.265 ng·h/mL | Serum concentration over 24 hours [1, 8]: 0.023 ng/mL | Time to maximal concentration [1, 8]: 13 ± 6 h | Area under the curve ([1]; 25 µg E2 vaginal tablet, Week 12, serum E2, mean ± SD): 0.563 ± 0.341 ng·h/mL | percentage of superficial vaginal cells, Mean ([2]; 10 µg E2, Week 0): 3.1% | percentage of superficial vaginal cells, Mean ([2]; 10 µg E2, Week 2): 28.3% | percentage of superficial vaginal cells, mean Change from baseline ([2]; 10 µg E2, Week 2): 25.0^a % | percentage of superficial vaginal cells, mean Change from baseline ([2]; 10 µg E2, Week 7): 17.1% | percentage of superficial vaginal cells, mean Change from baseline ([2]; 10 µg E2, Week 12): 16.9^d % | percentage of superficial vaginal cells, Mean ([2]; 25 µg E2, Week 0): 4.0% | percentage of superficial vaginal cells, Mean ([2]; 25 µg E2, Week 2): 34.2% | percentage of superficial vaginal cells, mean Change from baseline ([2]; 25 µg E2, Week 2): 30.7^a % | percentage of superficial vaginal cells, Mean ([2]; 25 µg E2, Week 7): 28.2% | percentage of superficial vaginal cells, mean Change from baseline ([2]; 25 µg E2, Week 7): 23.9^b,c % | percentage of superficial vaginal cells, mean Change from baseline ([2]; 25 µg E2, Week 12): 15.4% | vaginal symptom composite score ([3]; 10 µg E2, Week 12): ~0.6 | vaginal symptom composite score ([3]; 25 µg E2, Week 12): approximately 0.5 | vaginal symptom composite score ([3]; each treatment group (25 or 10 µg E2), Week 0 (baseline)): approximately 1.9 | maturation value, Mean ± SD ([4]; 10 µg E2, Week 0 (baseline)): 51.0 and 51.0 ± 6.2 | maturation value, Mean change ± SD from baseline ([4]; 10 µg E2, Week 12): 11.2 ± 17.8^b | maturation value, Mean ± SD ([4]; 10 µg E2, Week 12): 62.2 ± 15.7 | patients with increases in maturation values from baseline ([4]; 10 µg E2, Week 12): 14 patients | percentage of patients with increases in maturation values from baseline ([4]; 10 µg E2, Week 12): 64% | maturation value, Mean ± SD ([4]; 25 µg E2, Week 0 (baseline)): 52.4 and 53.4 and 52.4 ± 7.1 | maturation value, Mean change ± SD from baseline ([4]; 25 µg E2, Week 12): 7.0 ± 8.7^b | maturation value, Mean ± SD ([4]; 25 µg E2, Week 12): 58.4 ± 7.5 | patients with increases in maturation values from baseline ([4]; 25 µg E2, Week 12): 13 patients | percentage of patients with increases in maturation values from baseline ([4]; 25 µg E2, Week 12): 68%
